# Results published in ChEMBL document CHEMBL5331047 (Eur J Med Chem, 2022).
# Legend:
# [1] = AUC in rat at 20 mg/kg; assay type: ADME, organism-based; parameters: dose 20 mg/kg; details: in vivo
# [2] = Cmax in rat at 20 mg/kg; assay type: ADME, organism-based; parameters: dose 20 mg/kg; details: in vivo
# Influenza A virus = test: Antiviral activity against influenza A virus H5N1 infected in dog MDCK cells assessed as viral growth inhibition; assay type: functional, organism-based
# [3] = Cmax in rat at 10 mg/kg; assay type: ADME, organism-based; parameters: dose 10 mg/kg; details: in vivo
# [4] = AUC in rat at 10 mg/kg; assay type: ADME, organism-based; parameters: dose 10 mg/kg; details: in vivo
# Neuraminidase = Neuraminidase (Influenza A virus, UniProt B4URF0)
# [5] = Oral bioavailability in ferret at 10 mg/kg measured upto 24 hrs by LC-MS/MS assay; assay type: ADME, organism-based, Mustela putorius furo; details: in vivo
# [6] = Oral bioavailability in rat; assay type: ADME, organism-based; details: in vivo
structure (smiles),measurement,setting,value
CCC(CC)O[C@@H]1C=C(C(=O)O)C[C@H](NCc2ccc(Sc3ccccc3)cc2)[C@H]1NC(C)=O,AUC,[1],1500 ng·h/mL
same,Cmax,[2],407 ng/mL
CCC(CC)O[C@@H]1C=C(C(=O)O)C[C@H](NC(=O)COCCOCCOCCOCCN[C@H](C(=O)N2C[C@H](O)CC2C(=O)NCc2ccc(-c3scnc3C)cc2)C(C)(C)C)[C@H]1NC(C)=O (some centres undefined),EC50,Influenza A virus,290 nM
CCC(CC)O[C@@H]1C=C(C(=O)O)CC(N)[C@H]1NC(C)=O (some centres undefined),Cmax,[3],30 ng/mL
same,AUC,[4],300 ng·h/mL
same,EC50,Influenza A virus,2300 nM
CC(=O)N[C@@H]1[C@@H](N)CC(C(=O)O)=C[C@H]1OC1CCSC1 (some centres undefined),IC50,Neuraminidase,2.9 nM
CCCCCCCC(=O)OC[C@@H](O)[C@@H](OC)[C@@H]1OC(C(=O)O)=C[C@H](NC(=N)N)[C@H]1NC(C)=O [LANINAMIVIR OCTANOATE],bioavailability,[5],3.5%
CCC(CC)[C@H](NC(C)=O)[C@@H]1[C@H](O)[C@@H](C(=O)O)C[C@H]1NC(=N)N [PERAMIVIR ANHYDROUS],bioavailability,[6],2.5%
